This is an account of results in ChEMBL document CHEMBL5625262, “Discovery and first-time disclosure of CVN766, an exquisitely selective orexin 1 receptor antagonist” (Bioorg Med Chem Lett, 2024).

Series [1] deals with T1, Orexin receptor type 2 (Homo sapiens) (UniProt O43614).
T1 sequence (whole entry): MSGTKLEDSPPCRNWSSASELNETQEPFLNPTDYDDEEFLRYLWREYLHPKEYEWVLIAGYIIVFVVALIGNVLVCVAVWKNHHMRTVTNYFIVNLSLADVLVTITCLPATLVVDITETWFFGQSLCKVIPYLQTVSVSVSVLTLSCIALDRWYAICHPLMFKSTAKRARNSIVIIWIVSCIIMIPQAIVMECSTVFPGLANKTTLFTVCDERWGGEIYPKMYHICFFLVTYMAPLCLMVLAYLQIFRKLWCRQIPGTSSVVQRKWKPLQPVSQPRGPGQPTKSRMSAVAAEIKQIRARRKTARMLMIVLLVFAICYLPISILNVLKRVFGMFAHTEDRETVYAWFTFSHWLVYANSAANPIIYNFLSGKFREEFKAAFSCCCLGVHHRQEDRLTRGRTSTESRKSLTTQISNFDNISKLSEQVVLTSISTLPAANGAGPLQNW
The experiment in a line: Antagonist activity at human Ox2R overexpressed in rat Chem-1 cells assessed as inhibition of orexin A induced calcium flux at 10 uM preincubated for 15 mins followed by orexin A addition by FLIPR analysis relative to control. It counts as functional, cell-based.

Series [2] addresses T2, Orexin/Hypocretin receptor type 1 (Homo sapiens, UniProt O43613).
T2 sequence (O43613 whole entry): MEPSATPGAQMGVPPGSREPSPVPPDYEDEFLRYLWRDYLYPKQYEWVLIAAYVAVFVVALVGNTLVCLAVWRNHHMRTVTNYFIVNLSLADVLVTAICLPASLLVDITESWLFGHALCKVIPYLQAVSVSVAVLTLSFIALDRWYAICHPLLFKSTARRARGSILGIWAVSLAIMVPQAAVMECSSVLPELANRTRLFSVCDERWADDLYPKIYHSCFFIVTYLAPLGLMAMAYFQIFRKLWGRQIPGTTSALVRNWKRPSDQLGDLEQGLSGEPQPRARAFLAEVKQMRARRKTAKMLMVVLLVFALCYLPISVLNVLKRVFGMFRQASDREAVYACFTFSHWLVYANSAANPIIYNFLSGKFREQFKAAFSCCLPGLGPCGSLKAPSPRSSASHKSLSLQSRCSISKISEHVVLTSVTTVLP
The experiment in a line: Displacement of 3H-SB-674042 from human Ox1R expressed in CHO cell membranes by liquid scintillation counting method. Set-up: species or system Membrane. For orientation: In a radioligand displacement assay an active substance lowers the binding of a labelled ligand.

Series [3] in a line: Metabolic stability in human liver microsomes assessed as intrinsic clearance. It counts as ADME, Microsome. Conditions: read-out: CLH. (In general: Liver microsomes are a subcellular fraction often used to study metabolism.)
Series [4] in a line: Metabolic stability in mouse liver microsomes assessed as intrinsic clearance. It counts as ADME, Microsome. Conditions: read-out: CLH.
Series [5] has as its target T2, Orexin/Hypocretin receptor type 1. Nature of the series: Antagonist activity at human Ox1R overexpressed in rat Chem-1 cells assessed as inhibition of orexin A induced calcium flux preincubated for 15 mins followed by orexin A addition by FLIPR analysis. The class given is functional, cell-based. On the technique in general: A change in cytosolic calcium serves as a functional read-out for many receptors and channels.

Series [6] in a line: Metabolic stability in rat liver microsomes assessed as intrinsic clearance. The class given is ADME, Microsome. To be noted: read-out: CLH.
Series [7] in a line: Clearance in dog. Conditions: in vivo. It counts as ADME, Canis lupus familiaris.
Series [8] can be described thus: Ratio of unbound drug concentration in brain to plasma of po and iv dosed Sprague-Dawley rat. It counts as ADME, organism-based.
Series [9] is described as follows: Selectivity ratio of pKi for displacement of 3H-SB-674042 from human Ox1R expressed in CHO cell membranes to pKi for Ox2R (unknown origin).
Series [10] can be described thus: Volume of distribution in po or iv dosed Sprague-Dawley rat. It counts as ADME, organism-based. To be noted: in vivo.
A short description of series [11]: Oral bioavailability in dog. The class given is ADME, organism-based, Canis lupus familiaris. Conditions: in vivo.
In series [12] the target is T3, Orexin/Hypocretin receptor type 1 (Homo sapiens) (UniProt O43613).
T3 sequence (whole entry): T2 sequence (O43613 whole entry)
To be noted: CHO, Membrane, filed as antagonist.

The nature of series [13]: In vivo receptor occupancy at Ox1R in Sprague-Dawley rat at 3 mg/kg, po in presence of [3H]-SB-674042 measured for 8 hrs. It counts as ADME, organism-based.
A short description of series [14]: Oral bioavailability in Sprague-Dawley rat. Conditions: in vivo. The class given is ADME, organism-based.
Series [15] has as its target T4, Orexin receptor type 2 (Homo sapiens, UniProt O43614).
T4 sequence (O43614 whole entry): T1 sequence (whole entry)
The experiment in a line: Binding affinity to Ox2R (unknown origin).

Series [16] is described as follows: Ratio of drug concentration in brain to plasma of po and iv dosed Sprague-Dawley rat. The class given is ADME, organism-based.
Series [17] can be described thus: Tmax in Sprague-Dawley rat at 3 mg/kg, po measured for 8 hrs. It counts as ADME, organism-based. Conditions: in vivo.
Series [18] has as its target T4, Orexin receptor type 2. The experiment in a line: Antagonist activity at human Ox2R overexpressed in rat Chem-1 cells assessed as inhibition of orexin A induced calcium flux preincubated for 15 mins followed by orexin A addition by FLIPR analysis. The class given is functional, cell-based.

The inhibition is how much of the control response was suppressed. As usually defined, the Ki is the equilibrium dissociation constant of an inhibitor or competing ligand from its target. Take `O=C(N[C@H]1CCC[C@@H]1Nc1cnc(C(F)(F)F)cn1)c1ccccc1-n1nccn1`: in [1], the inhibition is 12%. The compound also showed a Ki in series [2] of 81.3 nM.
In general, IC50 refers to the concentration at which inhibition is half-maximal. Take `Cc1ccc(-n2nccn2)c(C(=O)N[C@H]2CCC[C@@H]2Nc2cnc3ccccc3n2)c1`: the values for the microsomal CLint in series [3], in series [4] and in series [6] were 24 µL/min/mg, 442 µL/min/mg and 335 µL/min/mg, respectively. In [1] (filed as antagonist), the inhibition turned out to be 60%. Besides, the IC50 in [5] amounted to 16 nM.
`CC(C)c1cnc(N[C@H]2CCC[C@@H]2NC(=O)c2ccccc2-n2nccn2)cn1`: the microsomal CLint worked out at 23 µL/min/mg in series [3], 403 µL/min/mg in [4] and 119 µL/min/mg in series [6]. Moreover, the inhibition in series [1] stood at 12%.
In the case of `Cc1nc(C(F)(F)F)cnc1N[C@H]1CCC[C@@H]1NC(=O)c1ncccc1-n1nccn1`, the inhibition in series [1] amounted to 11.4%. The IC50 in series [5] is 32 nM.
With `Cc1nc(C(F)(F)F)cnc1N[C@H]1CCC[C@@H]1NC(=O)c1ccccc1-n1nccn1`, in series [1], the inhibition turned out to be 22%. For the same compound, in series [5], the IC50 turned out to be 21 nM. Moreover, affinity in series [2] was put at a Ki of 20.9 nM.
For the compound `C[C@]1(Nc2cnc(C(F)(F)F)cn2)CCC[C@@H]1NC(=O)c1ccccc1-n1nccn1`, the inhibition in series [1] was found to be 25.3%. Further, the IC50 in series [5] turned out to be 6 nM.
With `CCc1nc(C(F)(F)F)cnc1N[C@@H]1CCC[C@H]1NC(=O)c1ncccc1-n1nccn1`, the inhibition in [1] (filed as antagonist) came out at 71.4%. Further, the IC50 in [5] came out at 1230 nM.
Turning to `CCc1nc(C(F)(F)F)cnc1N[C@H]1CCC[C@@H]1NC(=O)c1ccccc1-n1nccn1`, in series [1], the inhibition worked out at 25.6%.
By clearance is commonly meant the rate of elimination divided by the concentration. Read a low clearance as a low capacity for elimination. The term bioavailability denotes the share of a dose that reaches the circulation, judged against a reference dose that is usually intravenous. As a reminder, the Tmax is the time at which the peak concentration occurs. For `CCc1nc(C(F)(F)F)cnc1N[C@H]1CCC[C@@H]1NC(=O)c1ncccc1-n1nccn1` [CVN-766], the clearance in [7] was 2.2 mL/min/kg. Also, the results for the microsomal CLint in series [3], in series [4] and in series [6] were less than 3 µL/min/mg, less than 3 µL/min/mg and 13 µL/min/mg, respectively. Moreover, the “K(p,uu,brain)” value in [8] was found to be 0.77. Also, in series [9], the Ratio pKi is more than 1000. The inhibition in series [1] was found to be 37.5%. Besides, the Vd in series [10] was 1.02 L/kg. Besides, the values for the bioavailability in series [11] and in series [14] were 77% and 18%, respectively. Moreover, the T1/2 in series [12] amounted to 2.2 h. The Occ in [13] turned out to be 79.9%. For the same compound, the IC50 in series [5] stood at 8 nM. Further, the results for the Ki in [2] and in series [15] were 7.24 nM and 12900 nM, respectively. Moreover, the BPR in series [16] was 0.6. Besides, the Tmax in series [17] was 1 h.
Usually pKi stands for −log10 of the Ki, conventionally taken in molar units. A higher pKi goes with a small Ki. For `C[C@]1(Nc2cnc(C(F)(F)F)cn2)CCC[C@@H]1NC(=O)c1ncccc1-n1nccn1`, in series [1], the inhibition worked out at 21.1%. The IC50 in series [5] was found to be 16 nM. For the same compound, the affinity in [2], expressed as Ki, was 18.2 nM. Besides, the pKi in series [2] (cho) is recorded as 7.74.
`Cc1ccc(-n2nccn2)c(C(=O)N[C@H]2CCC[C@@H]2Nc2nc3ccc(F)cc3s2)c1`: the IC50 in series [5] came out at 17 nM; in series [18], 2460 nM.
As for `Cc1ccc(-n2nccn2)c(C(=O)N2CCN(c3nc4cc(Cl)ccc4o3)CC[C@H]2C)c1`, the T1/2 in series [12] came to 1.25 h.
